Tests used:
Test in all cases: relative viability (nuclei count vs DMSO), 5 days (fraction); higher = more cells survive
AZ628 + Crizotinib = compound: CC1=C(C=C(C=C1)NC(=O)C2=CC(=CC=C2)C(C)(C)C#N)NC3=CC4=C(C=C3)N=CN(C4=O)C [AZ628] + C[C@@H](Oc1cc(-c2cnn(C3CCNCC3)c2)cnc1N)c1c(Cl)ccc(F)c1Cl [Crizotinib] (partner 1 µM)
How it was run: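 After 5 days of treatment, lung cancer cells in 1536-well plates were fixed and stained in a single step (final 0.05% Triton X-100, 1% formaldehyde, 1 ug/ml Hoechst) and their nuclei counted on 4× images. Treatment had been applied by pin tool the day after seeding as one drug alone or as a fixed anchor-drug dose with five library-drug doses (not always all listed) in √10 steps. Relative viability is the nuclei count of treated wells divided by that of vehicle wells, and values are medians of duplicate plates.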

Darinaparsin = compound: C[As](C)SC[C@H](NC(=O)CC[C@H](N)C(=O)O)C(=O)NCC(=O)O [Darinaparsin]
How it was run: (§1)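 Cells of lung cancer lines were placed in 1536-well plates and kept overnight at 37 °C. Pinning then delivered five library-drug doses (not always all listed), spaced by √10, onto plates anchored with vehicle, and the cells were left 5 days without changing medium. One step fixed, permeabilised and stained them with Hoechst, and MetaXpress counted nuclei in 4× images. Viability, as a median over plates, is treated-well nuclei divided by vehicle-well nuclei, with acceptance only at control CV below 25% and at least one doubling.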

QS11 = compound: C1CC2=C(C1)C=C(C=C2)OC3=NC(=C4C(=N3)N(C=N4)CC5=CC=C(C=C5)C6=CC=CC=C6)N[C@@H](CC7=CC=CC=C7)CO [QS11]
How it was run: as §1

AZ628 = compound: CC1=C(C=C(C=C1)NC(=O)C2=CC(=CC=C2)C(C)(C)C#N)NC3=CC4=C(C=C3)N=CN(C4=O)C [AZ628]
How it was run: as §1

Cell Line | relative viability (AZ628 + Crizotinib; first compound 0.08 µM) | relative viability (AZ628 + Crizotinib; first compound 0.253 µM) | relative viability (AZ628 + Crizotinib; first compound 0.8 µM) | relative viability (AZ628 + Crizotinib; first compound 2.53 µM) | relative viability (AZ628 + Crizotinib; first compound 8 µM) | relative viability (Darinaparsin; 0.08 µM) | relative viability (Darinaparsin; 0.8 µM) | relative viability (Darinaparsin; 2.53 µM) | relative viability (Darinaparsin; 8 µM) | relative viability (QS11; 0.08 µM) | relative viability (QS11; 0.253 µM) | relative viability (QS11; 0.8 µM) | relative viability (QS11; 2.53 µM) | relative viability (QS11; 8 µM) | relative viability (AZ628; 0.08 µM) | relative viability (AZ628; 0.253 µM) | relative viability (AZ628; 0.8 µM) | relative viability (AZ628; 2.53 µM) | relative viability (AZ628; 8 µM)
EPLC-272H | 0.904 | 0.957 | 0.848 | 0.851 | 0.813 | 0.8 | 0.841 | 0.902 | 0.992 | 0.698 | 1.02 | 0.949 | 0.995 | 0.908 | 0.955 | 0.848 | 0.971 | 0.953 | 0.628
SW 900 | – | – | – | – | – | 0.965 | 0.669 | 0.994 | 0.942 | 0.705 | 0.688 | 0.809 | 0.663 | 0.521 | 1.13 | 0.865 | 1.14 | 0.803 | 0.889
EBC-1 | 0.201 | 0.212 | 0.169 | 0.197 | 0.168 | 1.2 | 0.971 | 0.935 | 1.05 | 1.06 | 1.05 | 0.934 | 0.97 | 0.92 | 0.955 | 0.958 | 0.983 | 0.911 | 0.625
HCC-44 | 0.801 | 0.857 | 0.961 | 0.912 | 0.721 | 0.964 | 0.957 | 0.987 | 0.996 | 1.07 | 0.913 | 0.735 | 0.969 | 0.83 | 1.02 | 1.03 | 0.988 | 0.987 | 0.984
NCI-H441 | 0.809 | 0.569 | 0.541 | 0.694 | 0.78 | 1.49 | 1.14 | 0.991 | 1.26 | 0.978 | 1.04 | 0.92 | 0.985 | 0.855 | 0.932 | 1.02 | 0.988 | 1.06 | 0.787
LU99A | 0.601 | 0.505 | 0.586 | 0.566 | 0.286 | 0.929 | 1.05 | 0.991 | 1.09 | 0.868 | 0.99 | 1.02 | 1.02 | 0.834 | 0.883 | 0.807 | 0.875 | 1.03 | 0.65
NCI-H661 | 0.975 | – | – | 1.1 | 1.01 | 0.999 | 1.01 | 1.03 | 1.12 | 0.992 | 0.977 | 0.853 | 1.01 | 1.03 | 1.08 | 1.05 | 0.861 | 0.938 | 0.842
PC-14 | 0.909 | 0.839 | 1.04 | 0.976 | 0.726 | 1.05 | 0.97 | 1.02 | 1.22 | 0.821 | 1.06 | 0.888 | 1.04 | 0.895 | 1.07 | 0.938 | 0.907 | 0.959 | 0.674
SK-LU-1 | 0.699 | 0.874 | 0.778 | 0.792 | 0.885 | 1.27 | 0.876 | 0.821 | 1.22 | 0.968 | 1.07 | 0.984 | 0.993 | 0.97 | 0.653 | 0.901 | 0.931 | 0.892 | 0.769
NCI-H2085 | 0.84 | 0.928 | 0.912 | 0.911 | 0.69 | 0.998 | 0.985 | 0.958 | 0.999 | 0.946 | 0.953 | 0.968 | 1 | 1.09 | 1.08 | 0.98 | 1 | 1.03 | 0.882
NCI-H1299 | 1.1 | 1.06 | 1.16 | 1.16 | 0.651 | 1.07 | 1.01 | 0.978 | 1.12 | 1.07 | 1.04 | 0.91 | 0.94 | 0.797 | 1.1 | 1.09 | 1.04 | 1.2 | 0.84
A549 | 0.702 | 0.728 | 0.697 | 0.712 | 0.382 | 1 | 0.987 | 0.991 | 1.21 | 0.974 | 0.971 | 0.829 | 0.912 | 0.927 | 1.02 | 0.865 | 0.787 | 0.897 | 0.452
NCI-H1395 | – | – | – | – | – | 0.995 | 0.883 | 0.815 | 0.938 | 0.833 | 0.976 | 1 | 0.881 | 0.986 | 1.02 | 0.794 | 0.92 | 0.92 | 0.832
NCI-H1666 | 1.09 | 0.901 | 0.819 | 0.761 | 0.632 | 1.04 | 0.948 | 1.24 | 1.05 | 0.935 | 0.984 | 0.776 | 0.793 | 0.667 | 0.965 | 0.826 | 0.885 | 0.813 | 0.901
IA-LM | 0.971 | 0.749 | 0.678 | 0.829 | 0.18 | 1.16 | 1.05 | 1.16 | 1.12 | 1 | 1.1 | 0.576 | 0.902 | 0.996 | 1.15 | 0.871 | 0.589 | 0.607 | 0.266
NCI-H1648 | – | – | – | – | – | 0.735 | 0.803 | – | 0.975 | 0.748 | 0.972 | 0.744 | 0.978 | 1.11 | 1.14 | 1.08 | 0.726 | 0.597 | 0.641
NCI-H1623 | – | – | – | – | – | 0.925 | 1.06 | 0.975 | 1.02 | 0.912 | 1.03 | 0.862 | 0.871 | 1.04 | 0.992 | 0.979 | 0.604 | 0.858 | 0.615
NCI-H1793 | – | – | – | – | – | 0.981 | 0.934 | 0.707 | 1.02 | 0.866 | 0.807 | 1.05 | 1.07 | 1.09 | 1.1 | 0.829 | 0.957 | 0.783 | 0.61

Source: the supplement of paper PMC10307832
